The text below walks through data of US10800792B2, “Inhibitors of Bruton's tyrosine kinase and method of their use” (JANSSEN PHARMACEUTICA NV, priority 2015, dated 2020).

Chain of unphosphorylated-BTK kinase domain (UP-BTK), GST-tagged human BTK (389-659aa) (Q06187 389-659): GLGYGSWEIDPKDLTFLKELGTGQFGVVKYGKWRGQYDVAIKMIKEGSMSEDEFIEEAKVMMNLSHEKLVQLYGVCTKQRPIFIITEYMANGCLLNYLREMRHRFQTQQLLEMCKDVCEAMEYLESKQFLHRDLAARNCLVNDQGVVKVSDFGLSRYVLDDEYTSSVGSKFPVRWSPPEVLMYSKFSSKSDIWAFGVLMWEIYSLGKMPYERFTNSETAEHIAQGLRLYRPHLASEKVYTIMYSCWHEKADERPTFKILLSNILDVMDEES

This assay has as its target unphosphorylated-BTK kinase domain (UP-BTK), GST-tagged human BTK (389-659aa) (Homo sapiens (Human), UniProt Q06187). The assay is described as follows: BTK kinase Lanthascreen binding assay. Conditions: unphosphorylated-BTK kinase domain, 60 minutes incubation, 50 nM Tracer 236; pIC50 = negative log of the IC50 in molar. Put shortly:
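Compound binding to the unphosphorylated kinase domain was monitored by displacement of a fluorescently labelled tracer in a Lanthascreen format. Potency is given as pIC50, the negative log of the molar IC50.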
In the case of `Cc1cc(Oc2ccccc2)ccc1N1C(=O)Nc2c(C(=O)N[C@@H]3CCCN(C(=O)CN4CCC4)C3)sc3nccc1c23` [Example 908, (R)—N-(1-(2-(Azetidin-1-yl)acetyl)piperidin-3-yl)-5-(2-methyl-4-phenoxyphenyl)-4-oxo-4,5-dihydro-3H-1-thia-3,5,8-triazaacenaphthylene-2-carboxamide], the “BTK_I_binding pIC50” value was 6.7.

`O=C(NC1CCOCC1)c1sc2nccc3c2c1NC(=O)N3c1ccc(Oc2ccccc2)cc1` [Example 909, 4-Oxo-5-(4-phenoxyphenyl)-N-(tetrahydro-2H-pyran-4-yl)-4,5-dihydro-3H-1-thia-3,5,8-triazaacenaphthylene-2-carboxamide]: the “BTK_I_binding pIC50” value is 6.7.

In the case of `CN1CC[C@@H](NC(=O)c2sc3nccc4c3c2NC(=O)N4c2ccc(Oc3ccccc3)cc2)C1` [Example 910, (R)—N-(1-Methylpyrrolidin-3-yl)-4-oxo-5-(4-phenoxyphenyl)-4,5-dihydro-3H-1-thia-3,5,8-triazaacenaphthylene-2-carboxamide], the “BTK_I_binding pIC50” value came out at 6.7.

Consider `O=C(N[C@@H]1CCNC1)c1sc2nccc3c2c1NC(=O)N3c1ccc(Oc2ccccc2)cc1` [Example 911, (R)-4-Oxo-5-(4-phenoxyphenyl)-N-(pyrrolidin-3-yl)-4,5-dihydro-3H-1-thia-3,5,8-triazaacenaphthylene-2-carboxamide], for which the “BTK_I_binding pIC50” value was 6.6.

For `Cc1cc(Oc2ccccc2)ccc1N1C(=O)Nc2c(C(=O)N[C@H]3CCCNC3)sc3nccc1c23` [Example 912, (S)-5-(2-Methyl-4-phenoxyphenyl)-4-oxo-N-(piperidin-3-yl)-4,5-dihydro-3H-1-thia-3,5,8-triazaacenaphthylene-2-carboxamide], the “BTK_I_binding pIC50” value was found to be 6.5.

As for `Cc1cc(OC(C)C)ccc1N1C(=O)Nc2c(C(=O)N[C@@H]3CCCN(C(=O)/C=C/CN(C)C)C3)sc3nccc1c23` [Example 913, (R,E)-N-(1-(4-(Dimethylamino)but-2-enoyl)piperidin-3-yl)-5-(4-isopropoxy-2-methylphenyl)-4-oxo-4,5-dihydro-3H-1-thia-3,5,8-triazaacenaphthylene-2-carboxamide], the “BTK_I_binding pIC50” value is 6.5.

Consider `O=C(N[C@@H]1CCN(C(=O)c2ccccc2)C1)c1sc2nccc3c2c1NC(=O)N3c1ccc(Oc2ccccc2)cc1` [Example 914, (R)—N-(1-Benzoylpyrrolidin-3-yl)-4-oxo-5-(4-phenoxyphenyl)-4,5-dihydro-3H-1-thia-3,5,8-triazaacenaphthylene-2-carboxamide], for which the “BTK_I_binding pIC50” value came out at 6.5.

Turning to `O=C(N[C@@H]1CCCNC1)c1sc2nccc3c2c1NC(=O)N3c1ccc(Oc2ccccc2)cn1` [Example 915, (R)-4-Oxo-5-(5-phenoxypyridin-2-yl)-N-(piperidin-3-yl)-4,5-dihydro-3H-1-thia-3,5,8-triazaacenaphthylene-2-carboxamide], the “BTK_I_binding pIC50” value was 6.5.

Consider `Cc1cc(Oc2ccccc2)ccc1N1C(=O)Nc2c(C(=O)NC3CCN(C(=O)/C(C#N)=C/C4CC4)CC3)sc3nccc1c23` [Example 916, (E)-N-(1-(2-Cyano-3-cyclopropylacryloyl)piperidin-4-yl)-5-(2-methyl-4-phenoxyphenyl)-4-oxo-4,5-dihydro-3H-1-thia-3,5,8-triazaacenaphthylene-2-carboxamide], for which the “BTK_I_binding pIC50” value amounted to 6.4.

Take `COc1ccccc1Oc1ccc(N2C(=O)Nc3c(C(=O)NC4CCNCC4)sc4nccc2c34)c(C)c1` [Example 917, 5-(4-(2-Methoxyphenoxy)-2-methylphenyl)-4-oxo-N-(piperidin-4-yl)-4,5-dihydro-3H-1-thia-3,5,8-triazaacenaphthylene-2-carboxamide]: the “BTK_I_binding pIC50” value amounted to 6.4.

As for `COc1ccccc1Oc1ccc(N2C(=O)Nc3c(C(=O)NC4CCN(C)CC4)sc4nccc2c34)c(C)c1` [Example 918, 5-(4-(2-Methoxyphenoxy)-2-methylphenyl)-N-(1-methylpiperidin-4-yl)-4-oxo-4,5-dihydro-3H-1-thia-3,5,8-triazaacenaphthylene-2-carboxamide], the “BTK_I_binding pIC50” value was determined as 6.4.

`Cc1cc(OC2CCCC2)ccc1N1C(=O)Nc2c(C(=O)N[C@@H]3CCCNC3)sc3nccc1c23` [Example 919, (R)-5-(4-(cyclopentyloxy)-2-methylphenyl)-4-oxo-N-(piperidin-3-yl)-4,5-dihydro-3H-1-thia-3,5,8-triazaacenaphthylene-2-carboxamide]: the “BTK_I_binding pIC50” value was found to be 6.4.

Take `CN1CCC(NC(=O)c2sc3nccc4c3c2NC(=O)N4c2ccc(Oc3ccccc3)cc2)CC1` [Example 920, N-(1-Methylpiperidin-4-yl)-4-oxo-5-(4-phenoxyphenyl)-4,5-dihydro-3H-1-thia-3,5,8-triazaacenaphthylene-2-carboxamide]: the “BTK_I_binding pIC50” value was 6.4.

Consider `Cc1cc(Oc2ccccc2)ccc1N1C(=O)Nc2c(C(=O)NC3CCN(C(=O)/C(C#N)=C/C(C)(C)C)CC3)sc3nccc1c23` [Example 921, (E)-N-(1-(2-Cyano-4,4-dimethylpent-2-enoyl)piperidin-4-yl)-5-(2-methyl-4-phenoxyphenyl)-4-oxo-4,5-dihydro-3H-1-thia-3,5,8-triazaacenaphthylene-2-carboxamide], for which the “BTK_I_binding pIC50” value is listed as 6.3.

Take `O=C(N[C@@H]1CCCNC1)c1sc2nccc3c2c1NC(=O)N3c1ccc(Oc2ccccc2)nc1` [Example 922, (R)-4-Oxo-5-(6-phenoxypyridin-3-yl)-N-(piperidin-3-yl)-4,5-dihydro-3H-1-thia-3,5,8-triazaacenaphthylene-2-carboxamide]: the “BTK_I_binding pIC50” value is listed as 6.3.

Regarding `CNCC(=O)N1CCC[C@@H](NC(=O)c2sc3nccc4c3c2NC(=O)N4c2ccc(OC(C)C)cc2C)C1` [Example 923, (R)-5-(4-Isopropoxy-2-methylphenyl)-N-(1-(2-(methylamino)acetyl)piperidin-3-yl)-4-oxo-4,5-dihydro-3H-1-thia-3,5,8-triazaacenaphthylene-2-carboxamide], the “BTK_I_binding pIC50” value came out at 6.3.

On to `CC(=O)N1CC[C@H](NC(=O)c2sc3nccc4c3c2NC(=O)N4c2ccc(Oc3ccccc3)cc2)C1` [Example 924, (S)—N-(1-Acetylpyrrolidin-3-yl)-4-oxo-5-(4-phenoxyphenyl)-4,5-dihydro-3H-1-thia-3,5,8-triazaacenaphthylene-2-carboxamide], for which the “BTK_I_binding pIC50” value was 6.3.

As for `O=C(N[C@@H]1CCN(Cc2ccccc2)C1)c1sc2nccc3c2c1NC(=O)N3c1ccc(Oc2ccccc2)cc1` [Example 925, (R)—N-(1-Benzylpyrrolidin-3-yl)-4-oxo-5-(4-phenoxyphenyl)-4,5-dihydro-3H-1-thia-3,5,8-triazaacenaphthylene-2-carboxamide], the “BTK_I_binding pIC50” value is on record as 6.3.

As for `O=C(NC1CCNCC1)c1sc2nccc3c2c1NC(=O)N3c1ccc(Oc2ccccc2)cc1` [Example 926, 4-oxo-5-(4-phenoxyphenyl)-N-(piperidin-4-yl)-4,5-dihydro-3H-1-thia-3,5,8-triazaacenaphthylene-2-carboxamide], the “BTK_I_binding pIC50” value was found to be 6.2.

Take `O=C(NCCN1CCCC1)c1sc2nccc3c2c1NC(=O)N3c1ccc(Oc2ccccc2)cc1` [Example 927, 4-Oxo-5-(4-phenoxyphenyl)-N-(2-(pyrrolidin-1-yl)ethyl)-4,5-dihydro-3H-1-thia-3,5,8-triazaacenaphthylene-2-carboxamide]: the “BTK_I_binding pIC50” value was 6.2.

On to `O=C(NCCN1CCNCC1)c1sc2nccc3c2c1NC(=O)N3c1ccc(Oc2ccccc2)cc1` [Example 928, 4-Oxo-5-(4-phenoxyphenyl)-N-(2-(piperazin-1-yl)ethyl)-4,5-dihydro-3H-1-thia-3,5,8-triazaacenaphthylene-2-carboxamide], for which the “BTK_I_binding pIC50” value is recorded as 6.2.

Turning to `C=CC(=O)N1CCC(NC(=O)c2sc3nccc4c3c2NC(=O)N4c2ccc(Oc3ccccc3)cc2C)CC1` [Example 929, N-(1-Acryloylpiperidin-4-yl)-5-(2-methyl-4-phenoxyphenyl)-4-oxo-4,5-dihydro-3H-1-thia-3,5,8-triazaacenaphthylene-2-carboxamide], the “BTK_I_binding pIC50” value was found to be 6.1.

For the molecule `Cc1cc(Oc2ccccc2)ccc1N1C(=O)Nc2c(C(=O)N[C@H]3CCCN(C)C3)sc3nccc1c23` [Example 930, (S)-5-(2-methyl-4-phenoxyphenyl)-N-(1-methylpiperidin-3-yl)-4-oxo-4,5-dihydro-3H-1-thia-3,5,8-triazaacenaphthylene-2-carboxamide], the “BTK_I_binding pIC50” value is 6.0.

For the molecule `CN1CC[C@H](NC(=O)c2sc3nccc4c3c2NC(=O)N4c2ccc(Oc3ccccc3)cc2)C1` [Example 931, (S)—N-(1-Methylpyrrolidin-3-yl)-4-oxo-5-(4-phenoxyphenyl)-4,5-dihydro-3H-1-thia-3,5,8-triazaacenaphthylene-2-carboxamide], the “BTK_I_binding pIC50” value amounted to 6.1.

Consider `O=C(NCCN1CCCCC1)c1sc2nccc3c2c1NC(=O)N3c1ccc(Oc2ccccc2)cc1` [Example 932, 4-Oxo-5-(4-phenoxyphenyl)-N-(2-(piperidin-1-yl)ethyl)-4,5-dihydro-3H-1-thia-3,5,8-triazaacenaphthylene-2-carboxamide], for which the “BTK_I_binding pIC50” value was 6.1.

In the case of `O=C(NCCN1CCOCC1)c1sc2nccc3c2c1NC(=O)N3c1ccc(Oc2ccccc2)cc1` [Example 933, N-(2-Morpholinoethyl)-4-oxo-5-(4-phenoxyphenyl)-4,5-dihydro-3H-1-thia-3,5,8-triazaacenaphthylene-2-carboxamide], the “BTK_I_binding pIC50” value is on record as 6.1.

Take `CN1CCN(CCNC(=O)c2sc3nccc4c3c2NC(=O)N4c2ccc(Oc3ccccc3)cc2)CC1` [Example 935, N-(2-(4-Methylpiperazin-1-yl)ethyl)-4-oxo-5-(4-phenoxyphenyl)-4,5-dihydro-3H-1-thia-3,5,8-triazaacenaphthylene-2-carboxamide]: the “BTK_I_binding pIC50” value is 6.0.

For the molecule `CC(=O)N1CCC[C@@H](NC(=O)c2sc3nccc4c3c2NC(=O)N4c2ccc(OC(C)C)cc2C)C1` [Example 936, (R)—N-(1-Acetylpiperidin-3-yl)-5-(4-isopropoxy-2-methylphenyl)-4-oxo-4,5-dihydro-3H-1-thia-3,5,8-triazaacenaphthylene-2-carboxamide], the “BTK_I_binding pIC50” value is given as less than 6.
